Data taken from article PMC7216583 (Parasites & Vectors, 2020).
Where a name gives a salt, the structure may show the parent alone. Read-outs that look alike come from different tables or passages of the source.

Columns and labels:
Abl = system: Abl; design: method as in S-inhibitor; conditions: ref S-inhibitor; read-out: IC50, c-Abl; cited from earlier work
EphB4 = system: EphB4; design: method as in S-inhibitor; conditions: ref S-inhibitor; cited from earlier work
[1] = system: Toxoplasma gondii RH-2F tachyzoites; test: microbe, parasite or virus in culture; conditions: 72 h
c-Raf = system: c-Raf; design: method as in S-inhibitor; conditions: ref S-inhibitor; cited from earlier work
VEGFR2 = system: VEGFR2; design: method as in S-inhibitor; conditions: ref S-inhibitor; cited from earlier work
Src = system: Src; design: method as in S-inhibitor; conditions: ref S-inhibitor; cited from earlier work
HER2/ErbB2 = system: HER2/ErbB2; design: method as in S-inhibitor; conditions: ref S-inhibitor; cited from earlier work
ErbB3 = system: ErbB3; design: method as in S-inhibitor; conditions: ref S-inhibitor; cited from earlier work
D2S receptor = conditions: read-out: Ki, D2S receptor; ref S-inhibitor; cited from earlier work
D2L receptor = conditions: read-out: Ki, D2L receptor; ref S-inhibitor; cited from earlier work
D4 receptor = conditions: read-out: Ki, D4 receptor; ref S-inhibitor; cited from earlier work
D3 receptor = conditions: read-out: Ki, D3 receptor; ref S-inhibitor; cited from earlier work
in vitro = conditions: human, Host viability (%) mean
5-HT2 receptor = target: 5-HT2 receptor; design: method as in S-inhibitor; conditions: ref S-inhibitor; read-out: Ki, serotonin 5-HT2; cited from earlier work
dopamine D2 = target: dopamine D2; design: method as in S-inhibitor; conditions: ref S-inhibitor; cited from earlier work
smoothened [2] = system: smoothened; design: method as in S-inhibitor; conditions: human; ref S-inhibitor; cited from earlier work
smoothened [3] = system: smoothened; design: method as in S-inhibitor; conditions: mouse; ref S-inhibitor; cited from earlier work
FAK = conditions: read-out: IC50, FAK; ref S-inhibitor; cited from earlier work
PARP1 = target: PARP1; design: method as in S-inhibitor; conditions: ref S-inhibitor; cited from earlier work
ALK4 = system: ALK4; design: method as in S-inhibitor; conditions: ref S-inhibitor; cited from earlier work
ALK5 = conditions: read-out: IC50, ALK5; ref S-inhibitor; cited from earlier work
WT PFV IN = system: WT PFV IN; design: method as in S-inhibitor; conditions: ref S-inhibitor; cited from earlier work
S217Q PFV IN = system: S217Q PFV IN; design: method as in S-inhibitor; conditions: ref S-inhibitor; cited from earlier work
CDK1/cyclin B = system: CDK1/cyclin B; design: method as in S-inhibitor; conditions: ref S-inhibitor; cited from earlier work
CDK2/cyclin E = system: CDK2/cyclin E; design: method as in S-inhibitor; conditions: ref S-inhibitor; cited from earlier work
Colo205 = system: Colo205; design: method as in S-inhibitor; conditions: ref S-inhibitor; read-out: IC50, Colo205 cell line; cited from earlier work
MX1 = system: MX1; design: method as in S-inhibitor; conditions: ref S-inhibitor; read-out: IC50, MX1 cell line; cited from earlier work
SKOV3 = system: SKOV3; design: method as in S-inhibitor; conditions: ref S-inhibitor; read-out: IC50, SKOV3 cell line; cited from earlier work
P388 = system: P388; design: method as in S-inhibitor; conditions: ref S-inhibitor; read-out: IC50, P388 cell line; cited from earlier work
MV522 = system: MV522; design: method as in S-inhibitor; conditions: ref S-inhibitor; read-out: IC50, MV522 cell line; cited from earlier work
glucokinase (GK) = target: glucokinase (GK); design: method as in S-inhibitor; conditions: ref S-inhibitor; read-out: EC50, glucokinase activation; cited from earlier work
FGFR3 = system: FGFR3; design: method as in S-inhibitor; conditions: ref S-inhibitor; cited from earlier work
FGFR1 = system: FGFR1; design: method as in S-inhibitor; conditions: ref S-inhibitor; cited from earlier work
PDE4 = system: PDE4; design: method as in S-inhibitor; conditions: ref S-inhibitor; cited from earlier work
V617F mutant JAK2 = system: V617F mutant JAK2; design: method as in S-inhibitor; conditions: in Ba/F3 cells; ref S-inhibitor; cited from earlier work
EGFR [4] = system: EGFR; design: method as in library vendor description; conditions: ref library vendor description; cited from earlier work
ErbB2 = system: ErbB2; design: method as in library vendor description; conditions: ref library vendor description; cited from earlier work
[5] = system: voltage-gated sodium channels; design: method as in S-inhibitor; conditions: ref S-inhibitor; cited from earlier work
If = system: If; design: method as in S-inhibitor; conditions: ref S-inhibitor; cited from earlier work
HIV-2 EHO = system: HIV-2 EHO; design: method as in S-inhibitor; conditions: ref S-inhibitor; cited from earlier work
HIV-2 ROD = system: HIV-2 ROD; design: method as in S-inhibitor; conditions: ref S-inhibitor; cited from earlier work
HIV-1 IIIB = system: HIV-1 IIIB; design: method as in S-inhibitor; conditions: ref S-inhibitor; cited from earlier work
ERβ = system: ERβ; design: method as in S-inhibitor; conditions: ref S-inhibitor; read-out: IC50, ERβ binding; cited from earlier work
ERα = conditions: read-out: IC50, ERα binding; ref S-inhibitor; cited from earlier work
Flt4 = system: Flt4; design: method as in S-inhibitor; conditions: ref S-inhibitor; cited from earlier work
(Na,K)-ATPase = target: (Na,K)-ATPase; design: method as in S-inhibitor; conditions: one value printed for both enzymes; ref S-inhibitor; cited from earlier work
alkaline phosphatase = conditions: read-out: IC50, alkaline phosphatase; one value printed for both enzymes; ref S-inhibitor; cited from earlier work
[6] = system: Toxoplasma gondii RH-2F tachyzoites; conditions: preliminary screen, mean
[7] = target: serotonin-norepinephrine reuptake; conditions: read-out: Ki, serotonin-norepinephrine reuptake inhibitor; ref S-inhibitor; cited from earlier work
EGFR [8] = system: EGFR; design: method as in S-inhibitor; conditions: ref S-inhibitor; cited from earlier work
ErbB4 = system: ErbB4; design: method as in S-inhibitor; conditions: ref S-inhibitor; cited from earlier work
MEK1/2 = system: MEK1/2; design: method as in S-inhibitor; conditions: ref S-inhibitor; cited from earlier work
[9] = read-out: Parasite inhibition (%) mean, preliminary screen, mean
[10] = read-out: Parasite inhibition (%) mean

Cc1ccc(C(=O)Nc2cccc(C(F)(F)F)c2)cc1Nc1nc(-c2cccnc2)nc2c1cnn2C [NVP-BHG712]
IC50 (Abl): 1670 nM
ED50, EphB4 (EphB4): 25 nM
inhibition of growth at 5 µM [1, 9]: -3.3%
IC50 (c-Raf): 395 nM
ED50, VEGFR2 (VEGFR2): 4.2 µM
IC50 (Src): 1270 nM

CNC(=O)CN1CCC(Oc2cc3c(Nc4cccc(Cl)c4F)ncnc3cc2OC)CC1 [AZD8931]
inhibition of growth at 5 µM [1, 9]: -20%
IC50 (HER2/ErbB2): 3 nM
IC50 (ErbB3): 4 nM

CCCN[C@H]1CCc2nc(N)sc2C1 [Pramipexole 2HCl monohydrate]
Ki (D2L receptor): 2.2 nM
Ki (D4 receptor): 5.1 nM
inhibition of growth at 5 µM [1, 10]: -9.5%
Ki (D3 receptor): 0.5 nM

CCN1CCN(c2cc(-c3ccc(F)cc3)c3c(n2)CCCCCC3)CC1 [Blonanserin (Lonasen)]
viability at 72 h (in vitro): 88.3%
Ki (5-HT2 receptor): 3.98 nM
Ki (dopamine D2): 14.8 nM
inhibition of growth at 5 µM [1, 9]: 82.1%

Cc1c(C(=O)Nc2ccc(N3C[C@@H](C)O[C@@H](C)C3)nc2)cccc1-c1ccc(OC(F)(F)F)cc1 [LDE225 (NVP-LDE225, Erismodegib)]
IC50 (smoothened [2]): 2.5 nM
IC50 (smoothened [3]): 1.3 nM
inhibition of growth at 5 µM [1, 9]: -3.8%

CS(=O)(=O)c1cccc(CNc2nc(Nc3ccc4c(c3)CCC(=O)N4)ncc2C(F)(F)F)c1 [PF 573228]
IC50 (FAK): 4 nM
inhibition of growth at 5 µM [1, 9]: 5%

CN(C)Cc1ccc(-c2nc3cccc4c3n2CCNC4=O)cc1 [AG14361]
Ki (PARP1): < 5 nM
inhibition of growth at 5 µM [1, 9]: 28.9%

Cc1cccc(-c2[nH]c(C(C)(C)C)nc2-c2ccc3c(c2)OCO3)n1 [SB-505124]
IC50 (ALK4): 129 nM
inhibition of growth at 5 µM [1, 9]: -14.8%
IC50 (ALK5): 47 nM

Cc1nnc(C(=O)NC(C)(C)c2nc(C(=O)NCc3ccc(F)cc3)c(O)c(=O)n2C)o1 [Raltegravir (MK-0518)]
inhibition of growth at 5 µM [1, 9]: 0.8%
IC50 (WT PFV IN): 90 nM
IC50 (S217Q PFV IN): 40 nM

CCCCOc1c(C(=O)c2c(F)cc(C)cc2F)c[nH]c2nncc1-2 [BMS-265246]
IC50 (CDK1/cyclin B): 6 nM
inhibition of growth at 5 µM [1, 9]: 7.3%
IC50 (CDK2/cyclin E): 9 nM

Cc1ccc(C(=O)N(CCCN)[C@@H](c2oc3cc(Cl)ccc3c(=O)c2Cc2ccccc2)C(C)C)cc1 [SB 743921]
IC50 (Colo205): 0.07 nM
IC50 (MX1): 0.06 nM
inhibition of growth at 5 µM [1, 9]: 0.5%
IC50 (SKOV3): 0.2 nM
IC50 (P388): 14.4 nM
IC50 (MV522): 1.7 nM

O=C(Nc1ncc(SCCN2CCCC2)s1)[C@]1(c2ccc(S(=O)(=O)C3CC3)cc2)C[C@@H]1C1CCCCC1 [LY2608204]
EC50 (glucokinase (GK)): 42 nM
inhibition of growth at 5 µM [1, 10]: -25.9%

CCN1CCN(c2ccc(Nc3cc(N(C)C(=O)Nc4c(Cl)c(OC)cc(OC)c4Cl)ncn3)cc2)CC1 [BGJ398 (NVP-BGJ398)]
inhibition of growth at 5 µM [1, 9]: -8.9%
IC50 (FGFR3): 1 nM
IC50 (FGFR1): 0.9 nM

O=C(Nc1c(Cl)cncc1Cl)c1ccc(OC(F)F)c(OCC2CC2)c1 [Roflumilast (Daxas)]
IC50 (PDE4): 0.2 to 4.3 nM
inhibition of growth at 5 µM [1, 9]: -0.2%

Cc1cc(Nc2cc(CN3CCOCC3)c3nc(C)c(Cc4ccc(Cl)cc4F)n3n2)n[nH]1 [LY2784544]
IC50 (V617F mutant JAK2): 55 nM
inhibition of growth at 5 µM [1, 9]: 11.1%

C=CC(=O)Nc1cc2c(Nc3ccc(F)c(Cl)c3)ncnc2cc1OCCCN1CCOCC1 [CI-1033 (Canertinib)]
inhibition of growth at 5 µM [1, 9]: -5.8%

CCCOc1ccc(C(=O)OCCN(CC)CC)cc1N [Proparacaine HCl]
inhibition of growth at 5 µM [1, 9]: 2.4%
ED50, voltage-gated sodium channels [5]: Proparacaine HCl is a voltage-gated sodium channels antagonist with ED50 of 3.4 mM.

COc1cc2c(cc1OC)CC(=O)N(CCCN(C)C[C@@H]1Cc3cc(OC)c(OC)cc31)CC2 [Ivabradine HCl (Procoralan)]
IC50 (If): 2900 nM
inhibition of growth at 5 µM [1, 9]: 0.6%

COc1cc2c(cc1Cc1cccc(Cl)c1F)c(=O)c(C(=O)O)cn2[C@H](CO)C(C)C [Elvitegravir (GS-9137)]
inhibition of growth at 5 µM [1, 9]: 0.7%
IC50 (HIV-2 EHO): 2.8 nM
IC50 (HIV-2 ROD): 1.4 nM
IC50 (HIV-1 IIIB): 0.7 nM

Cc1c(-c2ccc(O)cc2)n(Cc2ccc(OCCN3CCCCCC3)cc2)c2ccc(O)cc12 [Bazedoxifene HCl]
inhibition of growth at 5 µM [1, 9]: -12.8%

Cc1cc(Nc2cc(N3CCN(C)CC3)nc(/C=C/c3ccccc3)n2)n[nH]1 [ENMD-2076 L-(+)-Tartaric acid]
viability at 72 h (in vitro; preliminary screen, mean): 35.5%
IC50 (Flt4): 15.9 nM

[Na+].[Na+].[Na+].[O]=[V]([O-])([O-])[O-] [Sodium orthovanadate]
IC50 ((Na,K)-ATPase): 10 µM
IC50 (alkaline phosphatase): 10 µM
Parasite inhibition (%) mean [6]: 31.8%

CNCC[C@H](Oc1cccc2ccccc12)c1cccs1 [Duloxetine HCl (Cymbalta)]
Ki [7]: 4.6 nM
inhibition of growth at 5 µM [1, 10]: 30.9%

C=CC(=O)Nc1ccc2ncnc(Nc3ccc(OCc4cccc(F)c4)c(Cl)c3)c2c1 [AST-1306]
IC50 (EGFR [8]): 0.5 nM
inhibition of growth at 5 µM [1, 9]: -33.7%
IC50 (ErbB4): 0.8 nM

Cc1cc(C(=O)NOCCO)c(Nc2ccc(I)cc2F)n(C)c1=O [AZD8330]
IC50 (MEK1/2): 7 nM
inhibition of growth at 5 µM [1, 9]: -18.8%
